Assay results from ChEMBL document CHEMBL1121791, “Computer-assisted structure-activity studies of chemical carcinogens. Aromatic amines” (J Med Chem, 1981).

Experiments:
Type in all cases: functional, organism-based
Rattus norvegicus [1] = experiment: Carcinogenic activity on all sites after subcutaneous administration
Rattus norvegicus [2] = experiment: Carcinogenic activity on breast after subcutaneous administration
Rattus norvegicus [3] = experiment: Compound was tested for carcinogenic activity on mixed data after subcutaneous administration of the compound; + denotes carcinogenic activity.
Rattus norvegicus [4] = experiment: Carcinogenic activity on all sites after oral administration
Rattus norvegicus [5] = experiment: Carcinogenic activity on breast after oral administration of the compound
Rattus norvegicus [6] = experiment: Carcinogenic activity on mixed data after oral administration
Rattus norvegicus [7] = experiment: Carcinogenic activity on liver after oral administration
Rattus norvegicus [8] = experiment: Carcinogenic activity on ear duct after oral administration
Rattus norvegicus [9] = experiment: Carcinogenic activity on liver after subcutaneous administration
Rattus norvegicus [10] = experiment: Carcinogenic activity on breast after oral administration
Rattus norvegicus [11] = experiment: Carcinogenic activity on other sites after subcutaneous administration
Rattus norvegicus [12] = experiment: Carcinogenic activity on ear duct after subcutaneous administration
Rattus norvegicus [13] = experiment: Carcinogenic activity on other sites after oral administration
Rattus norvegicus [14] = experiment: Carcinogenic activity on all sites after intraperitoneal administration
Rattus norvegicus [15] = experiment: Carcinogenic activity on breast after intraperitoneal administration

Measured: Activity

Nc1c2ccccc2cc2ccccc12
Carcinogenic activity: Rattus norvegicus [1] | Rattus norvegicus [2] | Rattus norvegicus [3]

COc1ccc2c(c1)Cc1cc(NC(C)=O)ccc1-2
Carcinogenic activity: Rattus norvegicus [4] | Rattus norvegicus [5] | Rattus norvegicus [6] | Rattus norvegicus [7] | Rattus norvegicus [8]

Cc1cc(/N=N/c2ccccc2C)ccc1N
Carcinogenic activity: Rattus norvegicus [1] | Rattus norvegicus [9]

Cc1ccc(/N=N/c2cc(C)ccc2N)cc1
Carcinogenic activity: Rattus norvegicus [10]

CC(=O)N(OC(=O)c1ccccc1)c1ccc2c(c1)Cc1ccccc1-2
Carcinogenic activity: Rattus norvegicus [1] | Rattus norvegicus [11]

N#Cc1cc(/C=C/c2ccccc2)ccc1N
Carcinogenic activity: Rattus norvegicus [1] | Rattus norvegicus [11] | Rattus norvegicus [9]

ONc1ccc2c(c1)Cc1ccccc1-2
Carcinogenic activity: Rattus norvegicus [1] | Rattus norvegicus [2] | Rattus norvegicus [11] | Rattus norvegicus [3] | Rattus norvegicus [12]

Nc1ccc(/C=C/c2ccc(N)c(Cl)c2)cc1Cl
Carcinogenic activity: Rattus norvegicus [1] | Rattus norvegicus [11]

Nc1ccc(-c2ccccc2)cc1
Carcinogenic activity: Rattus norvegicus [4] | Rattus norvegicus [10]

CC(=O)Nc1cc2c(cc1F)-c1ccccc1C2
Carcinogenic activity: Rattus norvegicus [4] | Rattus norvegicus [5] | Rattus norvegicus [6] | Rattus norvegicus [7] | Rattus norvegicus [8]

[O-][n+]1ccc(NO)c2ccccc21
Carcinogenic activity: Rattus norvegicus [4] | Rattus norvegicus [10] | Rattus norvegicus [13]

NNc1nc(-c2ccc([N+](=O)[O-])o2)cs1
Carcinogenic activity: Rattus norvegicus [4] | Rattus norvegicus [10]

Cc1ccc(C)c(-c2ccc(N)cc2C)c1
Carcinogenic activity: Rattus norvegicus [1] | Rattus norvegicus [11]

CC(=O)Nc1ccc2c(c1)-c1ccccc1C2
Carcinogenic activity: Rattus norvegicus [14] | Rattus norvegicus [15]

Cc1cc(Cc2ccc(N)c(C)c2)ccc1N
Carcinogenic activity: Rattus norvegicus [4] | Rattus norvegicus [5] | Rattus norvegicus [6] | Rattus norvegicus [7] | Rattus norvegicus [13]

CNc1ccc2c(c1)Cc1ccccc1-2
Carcinogenic activity: Rattus norvegicus [4] | Rattus norvegicus [5] | Rattus norvegicus [6] | Rattus norvegicus [7] | Rattus norvegicus [8] | Rattus norvegicus [13]

Nc1ccc(/C=C/c2ccc(N)cc2)cc1
Carcinogenic activity: Rattus norvegicus [1] | Rattus norvegicus [12]

CC(=O)N(O)c1ccc2c(ccc3ccccc32)c1
Carcinogenic activity: Rattus norvegicus [1] | Rattus norvegicus [2] | Rattus norvegicus [11]

NNc1nc(-c2ccc([N+](=O)[O-])cc2)cs1
Carcinogenic activity: Rattus norvegicus [4] | Rattus norvegicus [10]

Cc1cc(-c2ccccc2C)ccc1N
Carcinogenic activity: Rattus norvegicus [4] | Rattus norvegicus [10] | Rattus norvegicus [6] | Rattus norvegicus [8] | Rattus norvegicus [13]

CC(=O)Nc1ccc2c(c1)Cc1ccc(F)cc1-2
Carcinogenic activity: Rattus norvegicus [4] | Rattus norvegicus [5] | Rattus norvegicus [6] | Rattus norvegicus [7] | Rattus norvegicus [8] | Rattus norvegicus [13]

CC(=O)N(C(C)=O)c1ccc(/C=C/c2ccccc2)cc1
Carcinogenic activity: Rattus norvegicus [1] | Rattus norvegicus [11] | Rattus norvegicus [12]

COc1cc(/C=C/c2ccccc2)c(OC)cc1N
Carcinogenic activity: Rattus norvegicus [1] | Rattus norvegicus [12]

CC(=O)Nc1ccc2c(c1)Cc1c(F)cccc1-2
Carcinogenic activity: Rattus norvegicus [4] | Rattus norvegicus [5] | Rattus norvegicus [6] | Rattus norvegicus [7] | Rattus norvegicus [8]

COc1cc(N)ccc1-c1ccccc1
Carcinogenic activity: Rattus norvegicus [1] | Rattus norvegicus [11]

CN(C)c1ccc2c(c1)Cc1ccccc1-2
Carcinogenic activity: Rattus norvegicus [4] | Rattus norvegicus [5] | Rattus norvegicus [6] | Rattus norvegicus [7] | Rattus norvegicus [8] | Rattus norvegicus [13]

CC(=O)ON(C(C)=O)c1cccc2ccc3ccccc3c12
Carcinogenic activity: Rattus norvegicus [1] | Rattus norvegicus [11]

CC(=O)Nc1csc(-c2ccc([N+](=O)[O-])o2)n1
Carcinogenic activity: Rattus norvegicus [1] | Rattus norvegicus [2] | Rattus norvegicus [11]

Nc1ccc(/C=C/c2ccccc2)cc1
Carcinogenic activity: Rattus norvegicus [4] | Rattus norvegicus [10] | Rattus norvegicus [8]

Cc1cc(-c2ccc(N)c(C)c2)ccc1N
Carcinogenic activity: Rattus norvegicus [1] | Rattus norvegicus [2] | Rattus norvegicus [11] | Rattus norvegicus [3] | Rattus norvegicus [8]

Nc1ccc2c(ccc3ccccc32)c1
Carcinogenic activity: Rattus norvegicus [4] | Rattus norvegicus [10]

Cc1cc(N)ccc1/C=C/c1ccccc1
Carcinogenic activity: Rattus norvegicus [1] | Rattus norvegicus [11]

Cc1cc(/C=C/c2ccccc2)ccc1N
Carcinogenic activity: Rattus norvegicus [1] | Rattus norvegicus [11]

CN(C)c1ccc(/C=C/c2ccccc2F)cc1
Carcinogenic activity: Rattus norvegicus [4] | Rattus norvegicus [5] | Rattus norvegicus [6] | Rattus norvegicus [7] | Rattus norvegicus [8]

Cc1cc(C)c(-c2ccc(N)cc2C)c(C)c1
Carcinogenic activity: Rattus norvegicus [1] | Rattus norvegicus [11]

N/C(=N\O)c1ccc([N+](=O)[O-])o1
Carcinogenic activity: Rattus norvegicus [4] | Rattus norvegicus [10] | Rattus norvegicus [6]

CC(=O)Nc1ccc2c(c1)Cc1cc(F)ccc1-2
Carcinogenic activity: Rattus norvegicus [4] | Rattus norvegicus [5] | Rattus norvegicus [6] | Rattus norvegicus [7] | Rattus norvegicus [8]

Nc1ccc(/C=C/c2ccc(F)cc2)cc1
Carcinogenic activity: Rattus norvegicus [1] | Rattus norvegicus [11] | Rattus norvegicus [9] | Rattus norvegicus [6] | Rattus norvegicus [12]

O=CNNc1nc(-c2ccc([N+](=O)[O-])o2)cs1
Carcinogenic activity: Rattus norvegicus [4] | Rattus norvegicus [10] | Rattus norvegicus [13]

CC(=O)Nc1ccc2c(c1)Cc1cc(NC(C)=O)ccc1-2
Carcinogenic activity: Rattus norvegicus [4] | Rattus norvegicus [5] | Rattus norvegicus [6] | Rattus norvegicus [7] | Rattus norvegicus [8] | Rattus norvegicus [13]

CC(=O)ON(C(C)=O)c1ccc(-c2ccccc2)cc1
Carcinogenic activity: Rattus norvegicus [1] | Rattus norvegicus [11]

CC(=O)N(O)c1cccc2c1Cc1ccccc1-2
Carcinogenic activity: Rattus norvegicus [14] | Rattus norvegicus [15]

CC(=O)ON(C(C)=O)c1ccc2c(c1)Cc1ccccc1-2
Carcinogenic activity: Rattus norvegicus [1] | Rattus norvegicus [11]

CC(=O)N(O)c1ccc2c(c1)-c1ccccc1C2
Carcinogenic activity: Rattus norvegicus [14] | Rattus norvegicus [15]

CC(=O)N(C(C)=O)c1ccc2c(c1)Cc1ccccc1-2
Carcinogenic activity: Rattus norvegicus [4] | Rattus norvegicus [5] | Rattus norvegicus [6] | Rattus norvegicus [7] | Rattus norvegicus [8] | Rattus norvegicus [13]

CC(=O)Nc1ccc2c(ccc3ccccc32)c1
Carcinogenic activity: Rattus norvegicus [4] | Rattus norvegicus [10] | Rattus norvegicus [6] | Rattus norvegicus [7] | Rattus norvegicus [8] | Rattus norvegicus [13]

CC(=O)N(O)c1ccc2c(c1)Cc1cc(F)ccc1-2
Carcinogenic activity: Rattus norvegicus [4] | Rattus norvegicus [5] | Rattus norvegicus [6] | Rattus norvegicus [7] | Rattus norvegicus [8] | Rattus norvegicus [13]

CC(=O)Nc1cccc2c1Cc1ccccc1-2
Carcinogenic activity: Rattus norvegicus [14] | Rattus norvegicus [15]

Nc1ccc(/C=C/c2ccc(N)cc2Cl)c(Cl)c1
Carcinogenic activity: Rattus norvegicus [1] | Rattus norvegicus [9]

O=C(Nc1ccc2c(c1)Cc1ccccc1-2)C(F)(F)F
Carcinogenic activity: Rattus norvegicus [4] | Rattus norvegicus [5] | Rattus norvegicus [6] | Rattus norvegicus [7] | Rattus norvegicus [8]

Nc1cccc2c1ccc1ccccc12
Carcinogenic activity: Rattus norvegicus [4] | Rattus norvegicus [10]
